The structures appear in SMILES notation.

The data set deals with RAW 264.7 cells. Nature of the data set: Cytotoxicity against macrophage, alamar blue. The data set is classed as cell-based. The following applies: CPT 0.01 to 2.5 μg/ml, 48 hr; PCSNs stored in 55% FBS 1 hr. The procedure: In detail, CPT-loaded HER2-PCSNs were prepared and stored in a high concentration of serum protein environment of 55% FBS for 1 hr. Thereafter, the stored HER2-PCSNs were collected and washed, and then treated to RAW 264.7 cells at a CPT concentration of 0.01 μg/ml, 0.1 μg/ml, 0.25 μg/ml, 0.5 μg/ml, 1.0 μg/ml, or 2.5 μg/ml, followed by incubation for 48 hr. After completing incubation, cell viability was examined using an alamar blue dye. As a control for comparison of the cell killing effect, RAW 264.7 cells were treated with free CPT which was not loaded in nanoparticles, and cell viability thereof was examined.

For `CC[C@@]1(O)C(=O)OCc2c1cc1n(c2=O)Cc2cc3ccccc3nc2-1` [free CPT, camptothecin], the “cell killing effect on macrophages (cell viability)” value is given as “exhibited the cell killing effect on RAW 264.7 cells with increasing treatment concentrations”.

The values are drawn from patent US11844844B2, “Fusion protein comprising glutathione-s-transferase and protein having binding affinity target cell or target protein, and use thereof” (UNIST(ULSAN NATIONAL INSTITUTE OF SCIENCE AND TECHNOLOGY), priority 2017, dated 2023).
